The values that follow are results of earlier work, collected in article PMC9305358 (The Journal of Biological Chemistry, 2022).

Where two headings read alike, the source gives them in different places.

For series [1], the system named is Mtb cells. The conditions noted are these: ref [19], [20], [21], [22]; cited from earlier work.
The test system of series [2] is ClpC1. To be noted: cited from earlier work.
Series [3] relates to ClpC1 NTD. To be noted: crystal structure pdb6PBS, ref [25]; cited from earlier work.

For the substance lassomycin, in series [1], the “toxicity to Mtb cells” value is “highly toxic to Mtb cells”. Also, the “effect on ClpC1 ATPase activity” value in series [2] (ref [20], [21]) is “increase ClpC1 ATPase activity”.
Take rufomycin: the “toxicity to Mtb cells” value in series [1] was “highly toxic to Mtb cells”. In series [2] (ref [22]), the “effect on ClpC1 ATPase activity” value is reported as “shows no impact”.
With ecumicin, the “toxicity to Mtb cells” value in series [1] is listed as “highly toxic to Mtb cells”. Besides, in series [3], the “binding stoichiometry/mode at ClpC1 NTD” value is recorded as “two ecumicin peptides bind to the NTD”. For the same substance, the “effect on ClpC1 ATPase activity” value in series [2] (ref [20], [21]) was “increase ClpC1 ATPase activity”.
